Reference: publication PMC11014391 (2024)

Assays:
[1] = tested on: FMN^1-212 (RNA, riboswitch) GGGAAAAAUAAAUAUUAAAAAUAAUCUUCGGGGCAGGGUGAAAUUCCCGACCGGUGGUAUAGUCCACGAAAGUAUUUGCUUUGAUUUGGUGAAAUUCCAAAACCGACAGUAGAGUCUGGAUGAGAGAAGAAAAGAAAUUUAAGUUUUUUAACUUGUUUUCUACAUUUUAGUAAUCUUACCCGAAUUCUAUAAUUCGGUUUUUUUAUUUUAACUGGCCCCCAAAAAAAAAAAAAAAAAAAAAAAA; assay: fluorescence anisotropy switching (FASST), APO probe; conditions: 150 mM NaCl, 5 mM MgCl2, 350 nM RNA, 5 nM APO-FAM-FMN DNA probe displaced
[2] = tested on: FMN^1-212 (RNA, riboswitch) GGGAAAAAUAAAUAUUAAAAAUAAUCUUCGGGGCAGGGUGAAAUUCCCGACCGGUGGUAUAGUCCACGAAAGUAUUUGCUUUGAUUUGGUGAAAUUCCAAAACCGACAGUAGAGUCUGGAUGAGAGAAGAAAAGAAAUUUAAGUUUUUUAACUUGUUUUCUACAUUUUAGUAAUCUUACCCGAAUUCUAUAAUUCGGUUUUUUUAUUUUAACUGGCCCCCAAAAAAAAAAAAAAAAAAAAAAAA; assay: SPR steady state; conditions: 150 mM NaCl, 5 mM MgCl2; HBS-N, 10 mM HEPES pH 7.4; apparent
[3] = tested on: FMN^AD (FMN aptamer domain) (RNA, riboswitch) GGGAUCUUCGGGGCAGGGUGAAAUUCCCGACCGGUGGUAUAGUCCACGAAAGUAUUUGCUUUGAUUUGGUGAAAUUCCAAAACCGACAGUAGAGUCUGGAUGAGAGAAGACCCCCAAAAAAAAAAAAAAAAAAAAAAAA; assay: SPR steady state; conditions: 150 mM NaCl, MgCl2; HBS-N, 10 mM HEPES pH 7.4
[4] = tested on: SAM-I^AD (yitJ SAM-I aptamer domain) (RNA, riboswitch) GGGCGUUCUUAUCAAGAGAAGCAGAGGGACUGGCCCGACGAAGCUUCAGCAACCGGUGUAAUGGCGAUCAGCCAUGACCAAGGUGCUAAAUCCAGCAAGCUCGAACAGCUUGGAAGAUAAGAAGCCCCCAAAAAAAAAAAAAAAAAAAAAAAA; assay: SPR steady state; conditions: 150 mM NaCl, MgCl2; HBS-N, 10 mM HEPES pH 7.4
[5] = tested on: SAM-I^1-156 (RNA, riboswitch) GGGAUAUCCGUUCUUAUCAAGAGAAGCAGAGGGACUGGCCCGACGAAGCUUCAGCAACCGGUGUAAUGGCGAUCAGCCAUGACCAAGGUGCUAAAUCCAGCAAGCUCGAACAGCUUGGAAGAUAAGAAGAGACAAAAUCACUGACAAAGUCUUCUUCUUCCCCCAAAAAAAAAAAAAAAAAAAAAAAA; assay: SPR steady state; conditions: 150 mM NaCl, 2 mM MgCl2, HBS-N, 10 mM HEPES pH 7.4, apparent, no switching seen by FASST
[6] = tested on: SAM-I^1-156 (RNA, riboswitch) GGGAUAUCCGUUCUUAUCAAGAGAAGCAGAGGGACUGGCCCGACGAAGCUUCAGCAACCGGUGUAAUGGCGAUCAGCCAUGACCAAGGUGCUAAAUCCAGCAAGCUCGAACAGCUUGGAAGAUAAGAAGAGACAAAAUCACUGACAAAGUCUUCUUCUUCCCCCAAAAAAAAAAAAAAAAAAAAAAAA; assay: fluorescence anisotropy switching (FASST), HOLO probe; conditions: 150 mM NaCl, 2 mM MgCl2; 10 mM HEPES pH 7.4, 37 °C; 350 nM RNA; 50 nM HOLO-FAM-SAM DNA probe hybridizes
[7] = tested on: SAM-I^1-156 (RNA, riboswitch) GGGAUAUCCGUUCUUAUCAAGAGAAGCAGAGGGACUGGCCCGACGAAGCUUCAGCAACCGGUGUAAUGGCGAUCAGCCAUGACCAAGGUGCUAAAUCCAGCAAGCUCGAACAGCUUGGAAGAUAAGAAGAGACAAAAUCACUGACAAAGUCUUCUUCUUCCCCCAAAAAAAAAAAAAAAAAAAAAAAA; assay: native PAGE switching, no probe; conditions: MgCl2; THEM buffer pH 7.5; 0.5 μM RNA; top band; bottom band 23 ± 9 μM
[8] = tested on: SAM-I riboswitch without spacer and poly(A) tail (RNA, riboswitch) GGGAUAUCCGUUCUUAUCAAGAGAAGCAGAGGGACUGGCCCGACGAAGCUUCAGCAACCGGUGUAAUGGCGAUCAGCCAUGACCAAGGUGCUAAAUCCAGCAAGCUCGAACAGCUUGGAAGAUAAGAAGAGACAAAAUCACUGACAAAGUCUUCUUCUU; assay: fluorescence anisotropy switching (FASST), APO probe; conditions: 150 mM NaCl, 2 mM MgCl2; 10 mM HEPES pH 7.4; APO-FAM-SAM DNA probe displaced
[9] = tested on: SAM-I^1-156 (RNA, riboswitch) GGGAUAUCCGUUCUUAUCAAGAGAAGCAGAGGGACUGGCCCGACGAAGCUUCAGCAACCGGUGUAAUGGCGAUCAGCCAUGACCAAGGUGCUAAAUCCAGCAAGCUCGAACAGCUUGGAAGAUAAGAAGAGACAAAAUCACUGACAAAGUCUUCUUCUUCCCCCAAAAAAAAAAAAAAAAAAAAAAAA; assay: native PAGE switching with HOLO-FAM-SAM probe; conditions: MgCl2; THEM buffer pH 7.5; HOLO-FAM-SAM DNA probe hybridizes
[10] = tested on: SAM-I^AD (yitJ SAM-I aptamer domain) (RNA, riboswitch) GGGCGUUCUUAUCAAGAGAAGCAGAGGGACUGGCCCGACGAAGCUUCAGCAACCGGUGUAAUGGCGAUCAGCCAUGACCAAGGUGCUAAAUCCAGCAAGCUCGAACAGCUUGGAAGAUAAGAAGCCCCCAAAAAAAAAAAAAAAAAAAAAAAA; assay: ITC; conditions: 150 mM NaCl, 2 mM MgCl2; 10 mM HEPES pH 7.4, 25 °C; 10 μM RNA
[11] = tested on: SAM-I^AD (yitJ SAM-I aptamer domain) (RNA, riboswitch) GGGCGUUCUUAUCAAGAGAAGCAGAGGGACUGGCCCGACGAAGCUUCAGCAACCGGUGUAAUGGCGAUCAGCCAUGACCAAGGUGCUAAAUCCAGCAAGCUCGAACAGCUUGGAAGAUAAGAAGCCCCCAAAAAAAAAAAAAAAAAAAAAAAA; assay: SPR kinetics; conditions: 150 mM NaCl, MgCl2; HBS-N, 10 mM HEPES pH 7.4; apparent
[12] = tested on: SAM-I^1-156 (RNA, riboswitch) GGGAUAUCCGUUCUUAUCAAGAGAAGCAGAGGGACUGGCCCGACGAAGCUUCAGCAACCGGUGUAAUGGCGAUCAGCCAUGACCAAGGUGCUAAAUCCAGCAAGCUCGAACAGCUUGGAAGAUAAGAAGAGACAAAAUCACUGACAAAGUCUUCUUCUUCCCCCAAAAAAAAAAAAAAAAAAAAAAAA; assay: native PAGE switching with APO-FAM-SAM probe; conditions: MgCl2; THEM buffer pH 7.5; APO-FAM-SAM DNA probe displaced
[13] = tested on: SAM-I^1-156 (RNA, riboswitch) GGGAUAUCCGUUCUUAUCAAGAGAAGCAGAGGGACUGGCCCGACGAAGCUUCAGCAACCGGUGUAAUGGCGAUCAGCCAUGACCAAGGUGCUAAAUCCAGCAAGCUCGAACAGCUUGGAAGAUAAGAAGAGACAAAAUCACUGACAAAGUCUUCUUCUUCCCCCAAAAAAAAAAAAAAAAAAAAAAAA; assay: fluorescence anisotropy switching (FASST), APO probe; conditions: 150 mM NaCl, 2 mM MgCl2; 10 mM HEPES pH 7.4, 37 °C; 75 nM RNA; 50 nM APO-FAM-SAM DNA probe displaced
[14] = tested on: SAM-I^1-156 (RNA, riboswitch) GGGAUAUCCGUUCUUAUCAAGAGAAGCAGAGGGACUGGCCCGACGAAGCUUCAGCAACCGGUGUAAUGGCGAUCAGCCAUGACCAAGGUGCUAAAUCCAGCAAGCUCGAACAGCUUGGAAGAUAAGAAGAGACAAAAUCACUGACAAAGUCUUCUUCUUCCCCCAAAAAAAAAAAAAAAAAAAAAAAA; assay: SPR kinetics; conditions: 150 mM NaCl, MgCl2; HBS-N, 10 mM HEPES pH 7.4; apparent
[15] = tested on: SAM-I riboswitch without spacer and poly(A) tail (RNA, riboswitch) GGGAUAUCCGUUCUUAUCAAGAGAAGCAGAGGGACUGGCCCGACGAAGCUUCAGCAACCGGUGUAAUGGCGAUCAGCCAUGACCAAGGUGCUAAAUCCAGCAAGCUCGAACAGCUUGGAAGAUAAGAAGAGACAAAAUCACUGACAAAGUCUUCUUCUU; assay: fluorescence anisotropy switching (FASST), HOLO probe; conditions: 150 mM NaCl, 2 mM MgCl2; 10 mM HEPES pH 7.4; HOLO-FAM-SAM DNA probe hybridizes
[16] = tested on: FMN^AD (FMN aptamer domain) (RNA, riboswitch) GGGAUCUUCGGGGCAGGGUGAAAUUCCCGACCGGUGGUAUAGUCCACGAAAGUAUUUGCUUUGAUUUGGUGAAAUUCCAAAACCGACAGUAGAGUCUGGAUGAGAGAAGACCCCCAAAAAAAAAAAAAAAAAAAAAAAA; assay: SPR kinetics; conditions: 150 mM NaCl, MgCl2; HBS-N, 10 mM HEPES pH 7.4; apparent
[17] = tested on: FMN^1-212 (RNA, riboswitch) GGGAAAAAUAAAUAUUAAAAAUAAUCUUCGGGGCAGGGUGAAAUUCCCGACCGGUGGUAUAGUCCACGAAAGUAUUUGCUUUGAUUUGGUGAAAUUCCAAAACCGACAGUAGAGUCUGGAUGAGAGAAGAAAAGAAAUUUAAGUUUUUUAACUUGUUUUCUACAUUUUAGUAAUCUUACCCGAAUUCUAUAAUUCGGUUUUUUUAUUUUAACUGGCCCCCAAAAAAAAAAAAAAAAAAAAAAAA; assay: SPR; conditions: 150 mM NaCl, 5 mM MgCl2; HBS-N, 10 mM HEPES pH 7.4; apparent; Table 2 prints 150 ± 180 nM

Which S50FASST ([1]; 10 mM HEPES pH 7.4, overnight) does the source give for `Cc1cc2nc3c(=O)[nH]c(=O)nc-3n(C[C@H](O)[C@H](O)[C@H](O)CO)c2cc1N(C)C` here?
The S50FASST was 24 ± 20 µM.

What about the KD [2] of the same compound?
The KD was 4.9 ± 0.2 µM.

What about the KD [3] of the same compound?
Its KD is 2 ± 1 µM.

Which results are given for `Nc1ncnc2c1ncn2[C@@H]1O[C@H](C[C@@H](N)CC[C@H](N)C(=O)O)[C@@H](O)[C@H]1O`?
KD [4]: 129 ± 14 µM; KD ([5]; error exceeds value): 2000 ± 3000 µM

What does the source list for `C[S+](CC[C@H](N)C(=O)O)C[C@H]1O[C@@H](n2cnc3c(N)ncnc32)[C@H](O)[C@@H]1O` (some centres unmarked)?
S50FASST [6]: 1.7 ± 0.4 µM; S50 NP [7]: 6 ± 2 µM; S50FASST [8]: 8 ± 3 µM; S50 NP [9]: 1.03 ± 0.08 µM; KD [10]: 0.128 ± 0.027 µM; KD [11]: 0.004 ± 0.002 µM; S50 NP [12]: 46 ± 44 µM; S50FASST [13]: 19 ± 12 µM; KD [14]: 0.0101 ± 0.0004 µM; S50FASST [15]: 0.19 ± 0.08 µM

For `Cc1cc2nc3c(=O)[nH]c(=O)nc-3n(C[C@H](O)[C@H](O)[C@H](O)CO)c2cc1C`, which S50FASST ([1]; 10 mM HEPES pH 7.4, overnight) is on record?
The S50FASST was 0.7 ± 0.3 µM.

And the KD [2]?
The KD was 32 ± 11 µM.

And the KD [3]?
Its KD is 30 ± 18 µM.

For `Cc1cc2nc3c(=O)[nH]c(=O)nc-3n(C[C@H](O)[C@H](O)[C@H](O)COP(=O)(O)O)c2cc1C`, which KD [16] is on record?
The KD was 0.16 ± 0.012 µM.

And the KD [17]?
Its KD is 0.095 ± 0.05 µM.

What about the S50FASST ([1]; 10 mM HEPES pH 7.4, 37 °C) of the same compound?
The S50FASST was 0.29 ± 0.06 µM.

Which KD [4] does the source give for `Nc1ncnc2c1ncn2[C@@H]1O[C@H](CSCC[C@H](N)C(=O)O)[C@@H](O)[C@H]1O` here?
The KD was 195 ± 22 µM.

What about the KD [5] of the same compound?
The KD was 46 ± 27 µM.
